Holding throughout (assay): NCI anticancer screen, dose series, 48 h
Assay [1] has as its system ACHN.
Assay [2] deals with BT-549.
Assay [3] has as its system COLO 205.
In assay [4] the test system is DU-145.
The test system of assay [5] is HCT-116.
Assay [6] has as its system HCT-15.
Assay [7] has as its system K562.
Assay [8] deals with MDA-MB-231.
The test system of assay [9] is MDA-MB-435.
The subject of assay [10] is Malme-3M.
Assay [11] concerns NCI-H226.
The subject of assay [12] is NCI-H23.
In assay [13] the test system is NCI-H522.
The subject of assay [14] is PC-3.
The test system of assay [15] is SR.
In assay [16] the test system is T47D.
The test system of assay [17] is U-251.
Assay [18] concerns UACC-257.
Assay [19] has as its system Hs-578T.
Assay [20] has as its system SNB-19.

Each structure is given as a SMILES string.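 Following 48 hours of exposure in 96-well plates, responses at five concentrations were used to interpolate endpoints linearly. The concentration for 50% growth inhibition is given as GI50.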 Activity calls are given as the source filed them. No stated cut-off is given here; in the data, active = GI50 up to about 1.1 µM and inactive = higher.

We go through eleven compounds from ChEMBL document CHEMBL1201862, “PubChem BioAssay data set” (2004).

For the compound `Brc1ccc2c(c1)C1=C(CO2)Cc2ccccc2O1`, the GI50 in assay [1] was 19.2 µM (inactive); in assay [2], 18.2 µM (inactive); in assay [3], 17.4 µM (inactive); in assay [4], 21.5 µM (inactive); in assay [5], 16.4 µM (inactive); in assay [6] it was 17.3 µM. The GI50 in assay [7] is 16.2 µM (inactive); in assay [8], 16.4 µM (inactive); in assay [9], 16.9 µM (inactive); in [10], 20.7 µM (inactive); in assay [11] it was 17.5 µM (inactive); in assay [12], 16.3 µM (inactive). Besides, the GI50 in assay [13] is 19.7 µM (inactive); in [14], 17.1 µM (inactive); in assay [15], 36.2 µM (inactive); in [16], 13.1 µM (inactive); in assay [17], 19.1 µM (inactive); in assay [18], 17.9 µM (inactive).

In the case of `COC(=O)c1cc(C)ccc1C1CN=NC12Cc1cccc(C)c1C2=O` (centres undefined), the GI50 was 28.2 µM (inactive) in assay [1]; 42.5 µM (inactive) in [4]; 23.8 µM (inactive) in assay [5]; 27.6 µM in assay [6]; 28.6 µM (inactive) in [19]; 33.3 µM (inactive) in [7]. The GI50 in [8] is 25.6 µM (inactive); in [9] it was 26.3 µM (inactive); in assay [10], 24.2 µM (inactive); in assay [11], 33.1 µM (inactive); in assay [12], 42.7 µM (inactive); in assay [13], 21.3 µM (inactive). Further, the GI50 in [20] is 55.1 µM (inactive); in [15] it was 26.2 µM (inactive); in [16] it was 12.3 µM (inactive); in assay [17], 48.9 µM (inactive); in assay [18] it was 30.9 µM (inactive).

Regarding `C/C1=C\[C@H](C)C[C@H](C)OC(=O)C[C@H](c2ccc(O)cc2)NC(=O)[C@H](Cc2ccc(O)c(I)c2)N(C)C(=O)[C@H](C)NC(=O)[C@@H](C)C1`, the GI50 in assay [1] was 0.00832 µM (active); in assay [3] it was 0.0161 µM (active); in [4], 0.0183 µM (active); in assay [5], 0.016 µM (active); in assay [6], 0.234 µM; in assay [19], 0.0564 µM (active). Moreover, the GI50 was 1.31 µM (inactive) in [7]; 0.0333 µM (active) in assay [8]; 0.0442 µM (active) in assay [9]; 0.0118 µM (active) in [10]; 0.0153 µM (active) in assay [11]; 2.79 µM (inactive) in assay [12]. Besides, the GI50 in assay [13] was 0.0818 µM (active); in assay [14], 0.0608 µM (active); in [20], 0.0143 µM (active); in assay [15], 0.0968 µM (active); in [17] it was 0.00944 µM (active).

For `Cc1cccc2oc3c(c(=O)c12)CC(O)C(C)(C)O3` (centres undefined), the GI50 was > 100 µM (inactive) in assay [1]; > 100 µM (inactive) in assay [3]; > 100 µM (inactive) in assay [4]; 45.8 µM (inactive) in assay [5]; above 100 µM in assay [6]; > 100 µM (inactive) in assay [19]. Besides, the GI50 is > 100 µM (inactive) in [7]; > 100 µM (inactive) in [9]; > 100 µM (inactive) in assay [10]; > 100 µM (inactive) in assay [11]; > 100 µM (inactive) in assay [12]; 35.9 µM (inactive) in assay [13]. Moreover, the GI50 in [14] was > 100 µM (inactive); in assay [20], > 100 µM (inactive); in assay [15], 56.1 µM (inactive); in [16], > 100 µM (inactive); in assay [17] it was > 100 µM (inactive); in assay [18] it was > 100 µM (inactive).

In the case of `COc1ccc(/C(Br)=C2\OC(=O)c3ccccc32)cc1`, the GI50 is > 10 µM (inactive) in assay [1]; > 10 µM (inactive) in [3]; > 10 µM (inactive) in [4]; > 10 µM (inactive) in assay [5]; above 10 µM in assay [6]; > 10 µM (inactive) in [19]. The GI50 in assay [7], in [8], in assay [9], in [11], in assay [12] and in [13] was > 10 µM (inactive) in each case. For the same compound, the GI50 in [14], in assay [20], in [15], in assay [16], in assay [17] and in assay [18] was > 10 µM (inactive) in each case.

`CCOC(CCCN1CCC2(CC1)C(=O)N(C)CN2c1ccccc1)(OCC)c1ccc(F)cc1`: the GI50 in assay [1] is 5.16 µM (inactive); in [3], 2.52 µM (inactive); in assay [4] it was 6.87 µM (inactive); in [5], 3.82 µM (inactive); in assay [6] it was 10.1 µM; in assay [7], 14 µM (inactive). In addition, the GI50 in assay [8] is 14.2 µM (inactive); in assay [10], 16.2 µM (inactive); in assay [11], 18.3 µM (inactive); in assay [12], 16.6 µM (inactive); in assay [13], 16.9 µM (inactive); in assay [14], 15.7 µM (inactive). For the same compound, the GI50 in [20] is 10.2 µM (inactive); in assay [16], 4.95 µM (inactive); in assay [17], 12.2 µM (inactive); in [18] it was 6.14 µM (inactive).

`Cc1cc(CC(O)(C(F)(F)F)C(F)(F)F)cc(CC(O)(C(F)(F)F)C(F)(F)F)n1`: the GI50 in [1] was 2.79 µM (inactive); in assay [3], 1.87 µM (inactive); in [4], 2.74 µM (inactive); in assay [5], 2.34 µM (inactive); in assay [6] it was 4.08 µM; in assay [19] it was 2.67 µM (inactive). In addition, the GI50 in assay [7] is 4.28 µM (inactive); in assay [8], 3.23 µM (inactive); in assay [9], 2.88 µM (inactive); in [10], 1.56 µM (inactive); in [11], 2.72 µM (inactive); in [12], 2.51 µM (inactive). Also, the GI50 in assay [13] is 2.36 µM (inactive); in assay [14], 2.9 µM (inactive); in assay [20], > 100 µM (inactive); in [15] it was 4.08 µM (inactive); in assay [16] it was 2.67 µM (inactive); in assay [17] it was 3.3 µM (inactive). In addition, the GI50 in assay [18] is 2.89 µM (inactive).

For the compound `CNC(=O)N1CN(c2ccccc2)C2(CCN(Cc3ccccc3)CC2)C1=O`, the GI50 is > 100 µM (inactive) in assay [1]; 35.6 µM (inactive) in assay [3]; > 100 µM (inactive) in [4]; 24.9 µM (inactive) in assay [5]; 15 µM in assay [6]; 31.8 µM (inactive) in assay [7]. Besides, the GI50 was 19.5 µM (inactive) in assay [8]; 70.1 µM (inactive) in assay [10]; > 100 µM (inactive) in assay [11]; > 100 µM (inactive) in assay [12]; > 100 µM (inactive) in assay [13]; 93.1 µM (inactive) in [14]. Moreover, the GI50 in assay [20] is > 100 µM (inactive); in assay [15] it was 15.7 µM (inactive); in assay [16], 1.87 µM (inactive); in assay [17], > 100 µM (inactive); in assay [18], > 100 µM (inactive).

For `Nn1c(CCCCCCCCc2nnc(COc3ccc(Cl)cc3Cl)n2N)nnc1COc1ccc(Cl)cc1Cl`, the GI50 is 44.9 µM (inactive) in assay [1]; 35.9 µM (inactive) in assay [2]; 25.8 µM (inactive) in [3]; 42.9 µM (inactive) in [4]; 16.7 µM (inactive) in assay [5]; 37.7 µM in [6]. In addition, the GI50 in assay [7] was 63.8 µM (inactive); in assay [8] it was 52.4 µM (inactive); in [9], 48.3 µM (inactive); in assay [10], 6.71 µM (inactive); in assay [11] it was 63.5 µM (inactive); in [12] it was 38 µM (inactive). The GI50 in assay [13] was 17.3 µM (inactive); in [14], 31 µM (inactive); in assay [20], 30.9 µM (inactive); in assay [17] it was 62.4 µM (inactive); in assay [18] it was 61.5 µM (inactive).

On to `CC(=O)c1ccc2c(c1)C(=O)c1sc(C(C)=O)cc1C2=O`, for which the GI50 in [1] is 0.736 µM (active); in assay [3], 1.69 µM (inactive); in assay [4] it was 1.01 µM (active); in assay [5] it was 0.488 µM (active); in [6], 0.918 µM; in assay [19], 1.46 µM (inactive). Further, the GI50 in assay [7] was 1.7 µM (inactive); in assay [8], 1.23 µM (inactive); in assay [9], 1.18 µM (inactive); in [10], 0.526 µM (active); in assay [11] it was 1.04 µM (active); in [12], 1.09 µM (active). Besides, the GI50 in assay [13] is 0.652 µM (active); in assay [14], 1.82 µM (inactive); in assay [20] it was 0.748 µM (active); in [15], 0.419 µM (active); in assay [16], 1.32 µM (inactive); in [17], 1.56 µM (inactive). Also, in [18], the GI50 was 0.859 µM (active).

For `COc1cc(NCc2ccc3nc(OC)c(OC)nc3c2)cc(OC)c1OC`, the GI50 in assay [1] is > 100 µM (inactive); in assay [3], > 100 µM (inactive); in assay [4], > 100 µM (inactive); in assay [5] it was > 100 µM (inactive); in assay [6], above 100 µM; in [7], 97.3 µM (inactive). Besides, the GI50 is > 100 µM (inactive) in [8]; > 100 µM (inactive) in [9]; > 100 µM (inactive) in assay [10]; > 100 µM (inactive) in assay [11]; > 100 µM (inactive) in [12]; 86.5 µM (inactive) in [13]. The GI50 is 89.1 µM (inactive) in [14]; > 100 µM (inactive) in assay [20]; 89.9 µM (inactive) in [15]; 18.6 µM (inactive) in assay [16]; > 100 µM (inactive) in assay [17]; > 100 µM (inactive) in assay [18].
